Experimental data published in patent US20260115250A1, “METHODS OF TREATING AGE-RELATED MACULAR DEGENERATION” (Character Biosciences, Inc., priority 2022, published 2026).
Peptide text beside a SMILES is read from it.

What was measured:
HepG2 cells = assay: HepG2 cholesterol import (BODIPY-Cholesterol); format: cell-based; conditions: HepG2, peptide:lipid complexes from 30 μM diluted 1:3
Experimental: HepG2 cells were seeded on a 96-well plate at 10,000 cells per well and grown to confluence. A solution of 500 μM DMPC and 50 μM BODIPY-Cholesterol was prepared in serum free EMEM. Peptides were diluted to 20 μM in serum free EMEM (a 2× solution). Peptides were added to lipid solution in equal parts (60 μL each) to create final 1× concentration and incubated for 1 hour at 37° C. HepG2 cells were serum starved in serum-free EMEM for 1 hour at 37° C. Peptide: Lipid complexes (100 μL total volume per well) were transferred to HepG2 cells for 2 hours at 37° C. Cells were washed, fixed, and intracellular fluorescence was read on Promega GloMax at 475 nm excitation, 500-550 emission. Fluorescence values were background corrected from no treatment conditions. Data are presented as mean+SD for two runs.
HepG2 cells were seeded on 96-well plates at 10,000 cells per well and grown to confluence. Peptide: Lipid complexes were created by preparing a solution of serum-free EMEM containing 30 μM peptide, 750 μM DMPC, and 75 μM BODIPY-Cholesterol. Peptide: Lipid complexes were serially diluted 1:3 for 5 concentrations, and incubated for 1 hour at 37° C. […] Cells were washed, fixed, and intracellular fluorescence was read on Promega GloMax at 475 nm excitation, 500-550 emission. Fluorescence values were background corrected from no treatment conditions. […]

ARPE-19 cells = assay: ARPE-19 GAG-dependent cholesterol import (with or without heparin); format: cell-based, human; conditions: ARPE-19, 10 μM peptide
Experimental: ARPE-19 cells were seeded on 96-well plates at 25,000 cells per well and grown to confluence. A 2× solution of 500 μM DMPC and 50 μM BODIPY-Cholesterol with or without 100 µg/mL heparin was prepared in serum free DMEM: F12. Peptides were diluted to 20 μM in serum free DMEM: F12 (a 2× solution). Peptides were added to lipid solution in equal parts (60 μL each) and incubated for 1 hour at 37° C. ARPE-19 cells were serum starved in serum free DMEM: F12 for 1 hour at 37° C. Peptide: Lipid complexes (100 μL total volume per well) were transferred to ARPE-19 cells for 2 hours at 37° C. Cells were washed, fixed, and intracellular fluorescence was read on Promega GloMax at 475 nm excitation, 500-550 emission. Fluorescence values were background corrected from no treatment conditions. Data are presented ±SD for 2 runs.

[1] = DMPC solubility assay, 0.5 mM DMPC (turbidity reduction); format: biochemical
Outline: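 Peptides (100 μM final, or 3.16-100 μM for titrations) incubated with 0.5 mM DMPC in water for 15 minutes at room temperature. Turbidity read as absorbance at 405 nm; EC50 from non-linear regression, mean+SD over two runs.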

SMILES: CC[C@H](C)[C@H](NC(=O)CNC(=O)[C@H](CO)NC(=O)[C@@H](NC(=O)[C@H](Cc1c[nH]c2ccccc12)NC(=O)[C@H](Cc1c[nH]cn1)NC(=O)[C@H](CCC(=O)O)NC(=O)[C@H](Cc1ccccc1)NC(=O)[C@H](CCCNC(=N)N)NC(=O)[C@H](CC(C)C)NC(=O)[C@H](CC(C)C)NC(=O)[C@H](CCCNC(=N)N)NC(=O)[C@H](CCCCN)NC(=O)[C@H](CCCNC(=N)N)NC(=O)[C@H](CC(C)C)NC(=O)[C@H](CCCCN)NC(=O)[C@H](CCCNC(=N)N)NC(=O)[C@H](CC(C)C)NC(=O)[C@@H](N)Cc1c[nH]cn1)[C@@H](C)CC)C(=O)N[C@@H](Cc1ccc(O)cc1)C(=O)N[C@@H](CO)C(=O)N[C@@H](CCC(=O)O)C(=O)N[C@@H](CS)C(=O)N[C@@H](CCCCN)C(=O)N[C@@H](Cc1c[nH]cn1)C(=O)N[C@@H](CC(C)C)C(=O)N[C@H](C(=O)N[C@@H](CCC(N)=O)C(=O)N[C@@H](CCC(=O)O)C(=O)O)[C@@H](C)CC [T-025] (H-HLRKLRKRLLRFEHWISGIYSECKHLIQE-OH; N-terminus and C-terminus assumed)
- cholesterol import titration (HepG2 cells): concentration-dependent cholesterol import activity
- GAG dependence of cholesterol import (ARPE-19 cells): rely on GAG binding for cholesterol import activity
- EC50 ([1]; 3.16-100 μM peptides, 15 minutes): 25.3 µM
- DMPC solubilizing activity ([1]; FIGS. 2A-2D and 3A-3C): significant activity
